Experimental data taken from US20050256179A1, “Selective pharmacologic inhibition of protein trafficking and related methods of treating human diseases” (priority 2003, published 2005).

Columns and labels:
GM-130 = GM-130 expression; assay type: cell-based; settings: data not shown
From the text: (§1) Likewise, the non-resident golgi protein Rab6 appeared to be unaffected in some cell types, as illustrated in FIG. 31.

Rab1b = Rab1b expression by Western blotting; assay type: cell-based
Procedure: (§2) Protein samples (in sample buffer) were boiled for 1-3 minutes and put on ice. Same amount of protein were loaded on the NuPage gel (InVitrogen). After the electrophoresis was complete, proteins were transferred from the gel to a PVDF membrane using the electro-blotting apparatus from InVitrogen; the voltage was set to 25 for 2-3 hr. Block non-specific binding by incubating membrane with 5% milk (in PBS, 0.1% tween 20) for at least 30 min at room temperature or overnight at 4° C. The blocked membrane was incubated with primary antibody (See TABLE 2) diluted in 5% milk for 1 hour at room temperature. Optimal antibody dilution depends on the company, the amount of protein. Dilutions of 1:1000 were generally used for the primary antibodies from Santa Cruz. The membrane was washed with PBS, 0.1% tween 3-4 times 5 mins. The membrane was incubated for 30-60 minutes at room temperature with horseradish peroxidase (HRP) conjugated secondary antibody diluted in 5% milk. We usually used 1:4000 dilution for the secondary antibody from Santa Cruz. The membrane was washed 3-4 times with PBS, 0.1% tween, each time 15 minutes. The detection solutions A and B were mixed in a ratio 40:1 and Pipetted onto the membrane, and incubated for 5 min at RT. A sheet of Hyper film ECL was placed on the top of the membrane in the dark and exposed for 1 min, or adjust accordingly. […]

GS15 = GS15 expression in 3T3 cells; assay type: cell-based; settings: beginning around 2 to 4 hrs of exposure
From the text: as §1

Rab1a = Rab1a expression by Western blotting; assay type: cell-based; settings: 3T3 cells
Procedure: as §2

[1] = tested on: viruses from families likely to utilize the golgi; experiment: In vitro testing of other viral families; assay type: cell-based; settings: Table 4
Procedure: The effect of AVP 893 on the spread of viral infection was further investigated. AVP 893 (at 300 ng/ml) was applied 16 hr prior to virus inoculation. Time points shown in FIG. 45 represent the hours after virus inoculation. […] In addition to the immunocytochemistry work shown in FIG. 45, extensive in vitro plaque assays were performed on HSV-1 and -2, as well as other families of virus that use the golgi in their life cycle (see Table 2).
Representative viruses from families likely to utilize the golgi were tested. […] (data not shown).

GS28 = GS28 expression by Western blotting; assay type: cell-based; settings: for GS28 expression: 100 ng/ml
Procedure: The culture medium was removed by vacuuming (for attached cells) or by low speed centrifugation (for suspension cells) for 5-7 minutes at room temperature. The cells were wasedh twith PBS, spun at 1200 rpm and the cell pellets were kept on ice. 300 μl/2.0×10^7 cells of ice cold lysis buffer was added with freshly added protease inhibitors. Cell pellets were gently resuspended and incubated on ice for at least 30 min, vortexed a few times during incubation. Cell lysate was spun at 14,000 rpm for 2-5 min at 4° C. The supernatant was transferred to a new microfuge tube and the pellet was discarded. An aliquot of sample was mixed with an equal volume of 2× sample buffer (InVitrogen), and stored at −80° C. Protein concentration was determined by using “BCA protein assay reagent kit” from Pierce.
Protein samples (in sample buffer) were boiled for 1-3 minutes and put on ice. Same amount of protein were loaded on the NuPage gel (InVitrogen). After the electrophoresis was complete, proteins were transferred from the gel to a PVDF membrane using the electro-blotting apparatus from InVitrogen; the voltage was set to 25 for 2-3 hr. Block non-specific binding by incubating membrane with 5% milk (in PBS, 0.1% tween 20) for at least 30 min at room temperature or overnight at 4° C. The blocked membrane was incubated with primary antibody (See TABLE 2) diluted in 5% milk for 1 hour at room temperature. Optimal antibody dilution depends on the company, the amount of protein. Dilutions of 1:1000 were generally used for the primary antibodies from Santa Cruz. The membrane was washed with PBS, 0.1% tween 3-4 times 5 mins. The membrane was incubated for 30-60 minutes at room temperature with horseradish peroxidase (HRP) conjugated secondary antibody diluted in 5% milk. We usually used 1:4000 dilution for the secondary antibody from Santa Cruz. The membrane was washed 3-4 times with PBS, 0.1% tween, each time 15 minutes. The detection solutions A and B were mixed in a ratio 40:1 and Pipetted onto the membrane, and incubated for 5 min at RT. A sheet of Hyper film ECL was placed on the top of the membrane in the dark and exposed for 1 min, or adjust accordingly.
To further examine the putative protein trafficking effects of AVP 893, other proteins in this pathway were tested in vitro in B16 and other cell lines. The effect of AVP 893 on cellular proteins was corroborated in B16 cells and extended to include a time-course (FIG. 17). B16-F10 tumor cells were seeded in T75 flasks at 20% confluence and cultured overnight. AVP 893 (100 ng/ml) was added to several flasks and one flask of cells was harvested at several time points following addition of compound. Lysates were prepared, separated by electrophoresis, and probed with antibody as described above in the general Western blotting protocol. Drug effects on GS28 and nicastrin paralleled each other and were progressively stronger with longer drug incubations. […] Other cell lines were tested for their expression of GS28 and nicastrin and found to respond similarly to drug, although quantitative differences were evident. Tumor cell lines found to respond similarly to AVP 893 include CAK1, SF295, PC3, MOLT4, Neuro2a, and RBL (FIGS. 18, 19, and 20). For the experiment shown in FIG. 18, LOX, CAKI, and 3T3 cell lines were treated as described for FIG. 17. For the results shown in FIG. 19, SF295, PC3, MOLT-4, and Neuro2a cells were treated as described for FIG. 17. For the results shown in FIG. 20, LOX, 3T3, and RBL cell lines were treated with varying concentrations of AVP 893 as described for FIG. 17. The effects on LOX cells were less evident. […] Levels of calnexin, a resident ER protein used as a control, were unchanged in drug-treated cells.

B16-F10 cells = experiment: PowerBlot screen of expression of over 950 proteins; assay type: cell-based, mouse; settings: 100 ng/ml, 16 hr
Procedure: A second series of experiments tested the activity of AVP 893 on the expression of over 950 proteins by Western blotting in vitro (in triplicate); methods detailed below. B16 tumor cells were chosen for this screen and a 16 hour duration of AVP 893 treatment was selected to optimize the number of proteins that might be modified by drug. […] B16-F10 cells were cultured for 16 hr in the presence or absence of 100 ng/ml AVP 893. Samples were harvested and lysates prepared according to instructions supplied by Becton-Dickinson. Samples were placed on dry ice and submitted to the same for expression analysis of 950 proteins. […] Although both proteins have entirely different functions in the cell, and have not been linked (apparently) in the scientific literature, there is a rational explanation for the changes noted in each protein, as described below.

Question: What does the source list for `O=C(Nc1ccc(-c2nc3cc(NC(=O)C4CCCCC4)ccc3[nH]2)cc1)C1CCCCC1` [AVP 893]?
Answer: GM-130 expression (GM-130): did not appear to be affected; Rab1b expression (Rab1b; 3T3 cells): not affected in 3T3 cells; Rab1b expression (Rab1b; spleen cells): suppressed in spleen cells; GS15 staining (GS15): greatly diminished; Rab1a expression (Rab1a): mild response; spread of other viral families [1]: inhibited; expression of GS28 and GS15 compared with monensin, Brefeldin A, rapamycin (GS28; 3T3 cells, 200 ng/ml, 18 hour): decreased the expression of GS28 and GS15 more markedly than the other three agents; IC50 for GS28 expression (GS28; 3T3 cells, overnight): 10 and 100 ng/ml; levels of GS28 (GS28; 3T3 fibroblast cell line): virtually eliminated; GS28 expression (GS28; B16 cells, two days of culture): complete loss of GS28; GS28 or nicastrin expression (GS28; resistant line H-460, overnight): little effect; GS28 expression (GS28; stimulated BALB/c spleen cells, 20 hours): abrogated; number of proteins consistently and significantly modified of over 950 (B16-F10 cells): 6
